# ChEMBL document CHEMBL2385061, “Synthesis and carbonic anhydrase inhibitory properties of sulfamides structurally related to dopamine” (Bioorg Med Chem, 2013)
# Assays:
# [1] = target: Carbonic anhydrase 5A, mitochondrial (Homo sapiens, UniProt P35218); assay: Inhibition of human carbonic anhydrase-5A preincubated for 15 mins by stopped-flow CO2 hydration assay
# Carbonic anhydrase 9 = Carbonic anhydrase 9 (Homo sapiens, UniProt Q16790); assay: Inhibition of human carbonic anhydrase-9 preincubated for 15 mins by stopped-flow CO2 hydration assay
# Chain of Carbonic anhydrase 5A, mitochondrial (P35218 whole entry): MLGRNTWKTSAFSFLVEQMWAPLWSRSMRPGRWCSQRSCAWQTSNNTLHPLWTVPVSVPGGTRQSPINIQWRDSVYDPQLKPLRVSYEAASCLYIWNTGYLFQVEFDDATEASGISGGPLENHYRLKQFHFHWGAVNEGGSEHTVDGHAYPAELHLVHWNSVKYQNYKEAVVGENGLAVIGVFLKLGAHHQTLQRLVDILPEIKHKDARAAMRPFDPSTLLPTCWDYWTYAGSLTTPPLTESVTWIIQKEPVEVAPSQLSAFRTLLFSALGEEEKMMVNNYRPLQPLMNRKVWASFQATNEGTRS
SMILES,Ki [1] [nM],Ki (Carbonic anhydrase 9) [nM]
COc1cc(CCNS(N)(=O)=O)cc(OC)c1OC,> 50000,221
COc1cccc(CCNS(N)(=O)=O)c1OC,> 50000,> 50000
COc1ccc(CCNS(N)(=O)=O)cc1OC,2280,92
COc1ccc(CCNS(N)(=O)=O)cc1,3250,376
COc1ccccc1CCNS(N)(=O)=O,3340,41
